# Entries after “also recorded” stand apart in the source; their conditions may differ.
# Assays:
# mice = details: cited from earlier work
# [1] = test system: Niemann-Pick C1-like 1 (NPC1L1) protein; details: by targeting NPC1L1; cited from earlier work
# LDLR null mice [2] = test: Plasma Serum Amyloid A (SAA) levels in LDLR null mice fed Western diet for two weeks; type: in vivo, mouse; details: statement over the experiments of Example 3 (single agents four out of four, Combined Formulation three out four, Novel Method three out three experiments)
# Experimental: The plasma from the mice in FIG. 1 was analyzed for SAA as described as described (see, e.g., Chattopadhyay et al. (2015) Pharma. Res. Per. 3: e00154; Chattopadhyay et al. (2016) J. Lipid. Res. 57: 832-847).
# (§1) Female LDLR null mice age 5-8 months (n=20 per group) were fed standard mouse chow (Chow) or a Western diet high in cholesterol and fat (WD) or were fed WD+0.06% by weight of a freeze-dried concentrate of transgenic tomatoes expressing the apoA-I mimetic peptide 6F, which was prepared as previously described (see, e.g., Chattopadhyay et al. (2015) Pharma. Res. Per. 3: e00154; Chattopadhyay et al. (2016) J. Lipid Res. 57: 832-847; PCT Pub. Nos: WO 2013/148214 (PCT/US2013/031037), WO 2015/175968 (PCT/US2015/031134)) (Tg6F), or the mice were fed WD with Ezetimibe added to give a daily dose of 10 mg/kg body weight/day (WD+Ezetimibe), or the mice were fed WD with Tg6F added at 0.06% by weight plus Ezetimibe (each added separately to the diet) to give a daily dose of Ezetimibe of 10 mg/kg body weight; the Tg6F and Ezetimibe were mixed into WD as described previously (Chattopadhyay et al. (2016) J. Lipid. […] After feeding the diets for two weeks, the mice were bled and total plasma cholesterol levels were determined as described (Id.). […]
# LDLR null mice [3] = test: Plasma hydroxyeicosatetraenoic acid (HETE) levels in LDLR null mice fed Western diet for two weeks; type: in vivo, mouse; details: female LDLR null mice age 5-8 months, n=20 per group, WD two weeks, Tg6F 0.06% of diet, Ezetimibe 10 mg/kg/day
# Experimental: The plasma from the mice in FIG. 1 was analyzed for 5-HETE as described (see, e.g., Navab et al. (2012) J. Lipid Res., 53: 437-445).
# as §1, with “Lipid. Res. 57: 832-847) (Combined Formulation), or the mice were fed WD to which was added ezetimibe-associated transgenic 6F peptide (Ez-tg6F) at 0.06% Tg6F by weight containing sufficient Ezetimibe to give a daily dose of 10 mg/kg body weight/day that was prepared as described herein. Specifically, the ezetimibe-associated Tg6F peptide (Ez-Tg6F) was made by adding the ezetimibe directly to a solution of ethyl acetate 5% acetic acid that had been incubated overnight at room temperature with freeze-dried tomato powder obtained from transgenic tomatoes expressing the 6F peptide, and which had been removed to a separate vessel as described previously (see, e.g., Chattopadhyay et al. (2015) Pharma. Res. Per. 3: e00154; Chattopadhyay et al. (2016) J. Lipid. Res. 57: 832-847) prior to addition of the ezetimibe.” for “Lipid.”
compound,measurement,setting,value
"O=C1[C@H](CC[C@H](O)c2ccc(F)cc2)[C@@H](c2ccc(O)cc2)N1c1ccc(F)cc1 [Ezetimibe, (3R,4S)-1-(4-fluorophenyl)-3-[(3S)-3-(4-fluorophenyl)-3-hydroxypropyl]-4-(4-hydroxyphenyl)azetidin-2-one]",ED50 value,mice,700 µg/kg/day
same,transintestinal cholesterol efflux (TICE),[1],promotes TICE
same,plasma SAA levels,LDLR null mice [2],equally effective; also recorded: significantly decreased the levels
same,plasma 5-HETE levels,LDLR null mice [3]; FIG. 7-8 / FIG. 17 G-H,equally effective; also recorded: significantly decreased plasma levels of 5-HETE
same,plasma 12-HETE levels,LDLR null mice [3]; FIG. 9-10 / FIG. 17 I-J,without effect; also recorded: failed to significantly decrease plasma 12-HETE and 15-HETE levels; also recorded: did not significantly alter plasma 12-HETE or 15-HETE levels
same,plasma 15-HETE levels,LDLR null mice [3]; FIG. 11-12 / FIG. 17 K-L,without effect; also recorded: failed to significantly decrease plasma 12-HETE and 15-HETE levels; also recorded: did not significantly alter plasma 12-HETE or 15-HETE levels
